Measured values from patent publication US11007269B2, “P53 degradation inducing molecule and pharmaceutical composition” (Tokyo University of Science Foundation, priority 2016, dated 2021).

Columns and labels:
[1] = biological target: T1, MDM2 protein (Homo sapiens, UniProt Q00987); test: Western blot of endogenous MDM2 protein degradation (knockdown) in HCT116 cells; assay type: cell-based; conditions: 48 hours after addition, vs DMSO control
T1 construct: endogenous in cells; host or cells: HCT116
Protocol: (§1) In Example 2, degradation (knockdown) of an endogenous wild-type p53 protein and MDM2 protein in HCT116 cells (human large intestinal cancer cells) to which TIBC-CANDDY_MLN had been added was evaluated by Western blot analysis.
(§2) HCT116 cells were seeded in a 24-well plate at a cell density of 8×10^4 cells/well, and then cultured under conditions of 37° C. and 5 vol % CO2 for 16 hours.
(§3) After 16 hours from cell seeding, TIBC-CANDDY_MLN or TIBC was added to HCT116 cells as follows. As a medium, a serum-free medium (37° C.) in which 1 mass % L-glutamine solution (Sigma-Aldrich) was added to D-MEM (high D-glucose, phenol red, sodium pyruvate (Wako Pure Chemical Industries, Ltd.)) was used. It is noted that the L-glutamine solution was added immediately before use. […]
(§4) After electrophoresis, proteins were transferred to a PVDF membrane (Immobion™-P, Millipore) under conditions of 100 V and 2 hours using a tank-type blotting device and a transfer buffer (25 mM Tris-HCl, 195 mM glycine, 0.01% SDS, 15% methanol). […] Subsequently, the membrane was treated with a chemiluminescence reagent Immobilon™ Western (Millipore), and then chemiluminescence was detected using a lumino image analyzer LAS-3000 (FUJIFILM Corporation).

[2] = biological target: endogenous wild-type p53 protein (Homo sapiens, UniProt P04637); test: Western blot of endogenous wild-type p53 protein degradation (knockdown) in HCT116 cells; assay type: cell-based; set-up: degradation (knockdown) of an endogenous wild-type p53 protein and MDM2 protein in HCT116 cells; endogenous in cells; host or cells: HCT116; conditions: 48 hours after addition, vs DMSO control
Protocol: as §1, §2, §3, §4

T1 sequence (Q00987 whole entry): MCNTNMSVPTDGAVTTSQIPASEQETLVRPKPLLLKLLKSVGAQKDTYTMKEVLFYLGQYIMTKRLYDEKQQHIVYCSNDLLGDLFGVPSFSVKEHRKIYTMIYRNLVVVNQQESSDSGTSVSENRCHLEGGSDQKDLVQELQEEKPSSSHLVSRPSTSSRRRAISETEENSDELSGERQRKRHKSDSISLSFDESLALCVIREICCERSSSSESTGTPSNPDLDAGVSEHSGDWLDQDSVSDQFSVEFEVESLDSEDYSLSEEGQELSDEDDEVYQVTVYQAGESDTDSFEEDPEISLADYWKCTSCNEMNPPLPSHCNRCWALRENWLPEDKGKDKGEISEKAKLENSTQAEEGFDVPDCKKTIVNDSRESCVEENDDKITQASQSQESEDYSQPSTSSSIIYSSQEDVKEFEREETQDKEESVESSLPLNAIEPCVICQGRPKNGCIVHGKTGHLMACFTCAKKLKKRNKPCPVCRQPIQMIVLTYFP
endogenous wild-type p53 protein, sequence (P04637 whole entry): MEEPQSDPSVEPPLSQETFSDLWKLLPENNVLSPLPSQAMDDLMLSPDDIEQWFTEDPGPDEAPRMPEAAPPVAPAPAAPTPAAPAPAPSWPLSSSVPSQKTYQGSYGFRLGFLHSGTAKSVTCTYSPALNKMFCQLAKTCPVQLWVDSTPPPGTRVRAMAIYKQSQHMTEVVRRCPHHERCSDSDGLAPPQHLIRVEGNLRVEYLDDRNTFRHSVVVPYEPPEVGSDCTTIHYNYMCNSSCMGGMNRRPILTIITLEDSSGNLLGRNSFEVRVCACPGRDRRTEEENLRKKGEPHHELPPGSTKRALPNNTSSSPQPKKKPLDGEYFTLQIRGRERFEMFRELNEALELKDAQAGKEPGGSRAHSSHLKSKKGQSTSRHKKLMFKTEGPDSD

amount of the endogenous MDM2 protein (Western blot) [1]: reduced
amount of the endogenous wild-type p53 protein (Western blot) [2]: reduced
Compound: CC(C)C[C@H](NC(=O)CNC(=O)c1cc(Cl)ccc1Cl)C(=O)NCCCCCCC(=O)Nc1ccc(C(=O)/C=C/c2ccc(I)cc2)cc1 [TIBC-CANDDY_MLN]
